# Experimental data taken from patent publication US20060167109A1, “Methods of reducing rhinovirus contagion and related compositions” (priority 2002, published 2006).
# What was measured:
# Aqueous solubility = assay type: physicochemical
# [1] = Cell toxicity (MTT) assay of cell growth; details: human, HeLa (WIS) cells; methyltetrazolium dye-based assay of cell growth
# Procedure: To properly evaluate antiviral activity in cell culture assays, the 50% cytotoxic concentration (CC50) of the test compound was first determined so that any inhibitory effects on virus replication could be distinguished from effects due to compound cytotoxicity. The CC50 of pleconaril was determined using a methyltetrazolium dye-based assay of cell growth (Pevear, et al., 1999, Antimicrob. Agents Chemother., 43, 2109-2115).
# Pleconaril was solubilized in dimethyl sulfoxide (DMSO). After dilution to the desired drug concentration, the final DMSO concentration in assays was 0.25%.
# HRV, four serotypes = assay: Virus yield reduction assay, single cycle of growth; assay type: cell-based, human rhinovirus; details: all four viruses, nontoxic drug concentrations, MOI 1, 12 hours
# Procedure: To assess the inhibition by pleconaril of HRV production from a single cycle of virus replication, virus yield experiments were performed. Cells were infected at a multiplicity of infection (MOI) of 1 infectious virion per cell with virus that had been pre-treated with pleconaril at various drug concentrations. After 12 hours of infection (a single replication cycle), the amount of virus produced was quantified. Pleconaril inhibited virus production in a concentration dependent manner. The yield of progeny virus was reduced by >99% for all four viruses at nontoxic drug concentrations.
# Virus was pretreated with various concentrations of pleconaril for 1 hour at 4° C. Confluent, 1-day-old monolayers of Hela (WIS) cells in 6 well plates were infected with virus at a multiplicity of infection (MOI) of approximately 1 plaque-forming unit per cell. After a 1 hour attachment period at 33° C., the inoculum was removed, the monolayers were washed 3 times with Dulbeccos modified phosphate buffer (DPBS)(JRH Biosciences, Lenexa, Kans.) and overlaid with 3 ml of media containing either the appropriate concentration of pleconaril or drug solvent (0.25% DMSO) alone. Incubation was continued for 12 hours at 33° C. and 2.5% CO2. All plates were frozen/thawed 3 times at −80° C. prior to quantification of virus yield in the virus cytopathic effect assay.
# HRV3 = assay: Uncoating inhibition; assay type: cell-based, human rhinovirus; details: 2 μM, 2 hours at 33° C.
# Procedure: Following attachment to susceptible cells, rhinoviruses are endocytosed and disassembled or uncoated in order to release the viral RNA for subsequent gene expression and RNA replication. To determine if pleconaril affected the uncoating stage of the virus infection cycle, two types of experiments were carried out. In the first approach, an experiment was conducted to follow directly the fate of intact ^35S-radiolabeled (156S) virions attached to cells that were then allowed to proceed through virion disassembly (uncoating) in either the absence or presence of pleconaril. HRV3 virus was chosen for this experiment, as it is representative of the respective genera, and because binding of pleconaril was fully reversible with dilution, minimizing the possibility of drug carryover issues.
# After virion attachment, either pleconaril (2 μM) or DMSO control solution was added to the cultures. After an additional 1 hour, the culture was shifted to 33° C., a temperature that permitted virus uncoating. After 2 hours, cell lysates were prepared and the amount of intact 156S virions was assessed by sedimentation of the lysates on continuous sucrose density gradients. […]
# [2] = Clinical pharmacokinetics: food effect, linearity, renal excretion; assay type: in vivo, human
# Procedure: Pleconaril was administered with food in all Phase II and III clinical studies conducted by Applicants.
# Pleconaril has a volume of distribution (Vz/F) that is consistent with significant tissue distribution despite the fact that pleconaril is highly bound (>99%) to plasma protein. Pleconaril is a low systemic clearance drug. Renal clearance contributes insignificantly to the systemic clearance of pleconaril. Less than 1% of the dose is excreted unchanged as pleconaril in urine.
structure (smiles),measurement,setting,value
"Cc1cc(CCCOc2c(C)cc(-c3noc(C(F)(F)F)n3)cc2C)on1 [pleconaril, 3-[3,5-dimethyl-4-[3-(3-methyl-5-isoxazolyl)propoxy]phenyl]-5-(trifluoromethyl)-1,2,4-oxadiazole]",solubility,Aqueous solubility,0.02 µg/mL
same,CC50,[1],12.5 to 25 µM
same,reduction of yield of progeny virus,"HRV, four serotypes",> 99%
same,reduction in the amount of attached intact 156S virions (uncoating),HRV3,minimal reduction
same,"pharmacokinetic profile, dose dependence",[2]; plasma concentration range exceeding the proposed regimen by approximately 2-fold,dose proportional and linear
same,dose excreted unchanged as pleconaril in urine,[2]; urine,Less than 1%
same,increase of absorption when administered with food,[2]; with food,3-4 fold
